Reference: patent US10576082B2, “ErbB2 regulates autophagic flux to modulate the proteostasis of APP-CTFs in alzheimer's disease” (Academia Sinica, priority 2016, dated 2020)

Tests used:
[1] = test system: γ-secretase-mediated proteolysis of C99 (CG cells); experiment: Cell-based C99-specific γ-secretase assay (CG cells, Gal4 luciferase reporter); conditions: 1 μM inhibitor, 1 μg/ml tetracycline, 37° C., 24 h
Method: (A) Adherent CG and NG cells (20,000 cells/well) were treated with 1 μM of the indicated ErbB1/2-selective tyrosine kinase inhibitors in the presence of 1 μg/ml tetracycline at 37° C. for 24 h. The luminescence signals emitted by cells treated with vehicle alone (Ctrl, 0.1% DMSO) were referred to as 100% relative luminescence signals. The luminescence signals generated by γ-secretase-mediated proteolysis of C99 (CG) or NΔE (NG) were determined using the Steady-Glo luciferase assay reagent. (B) HEK293 overexpressing C99-YFP cells were treated with 1 μM of the indicated ErbB1/2 tyrosine kinase inhibitors at 37° C. for 24 h. Clarified lysates were analyzed by Western blotting and quantified by Image J. (C) HEK293 overexpressing ErbB1 ErbB2, CFP-tagged C99, and YFP-tagged NΔE cells were infected with gene-targeting shRNA-encoding lentivirus (shErbB1 or shErbB2) at 37° C. for 48 h. Clarified lysates containing equivalent amounts of proteins were examined by Western blotting and quantified by Image J. (D) CG and NG cells were infected with gene-targeting shRNA-encoding lentivirus at 37° C. for 48 h. Following induction with 1 μg/ml tetracycline for 24 h. […] Data are shown as the mean±SD from three independent experiments, and were analyzed by Student's t-tests. * p<0.05. […]

[2] = test system: zebrafish embryos expressing GFP-tagged C99; experiment: C99-expressing zebrafish model of AD, Western blotting of embryo lysates; assay type: in vivo; conditions: treated from 48 hpf to 72 hpf at 28° C.
Method: (A) IMR32 cells overexpressing C99-YFP were grown with 2 ml fresh culture medium in 6-well plates, and treated with 1 μM CL-387,785 or DAPT at 37° C. for 24 h. The cell extracts were analyzed by Western blotting. (B) Conditional media were harvested and processed for determination of secreted Aβ40 using a colorimetric Aβ40-specific ELISA kit. (C) C99-YFP-expressing IMR32 cells (160,000 cells/well) were seeded onto 6-well plates and cultured at 37° C. for 24 h, and infected with ErbB1- or ErbB2-targeting shRNA lentivirus for an additional 48 h. Infection mixtures were replaced with 2 ml fresh culture medium, and infected cells were then incubated at 37° C. for an additional 24 h. The cell extracts were analyzed by Western blotting with anti-GFP antibody. (D) The conditioned media were harvested and processed for determination of secreted Aβ40. Data are the mean±SD from three independent experiments, and were analyzed by Student's t-tests. * p<0.05. (E) Schematic presentation of the DNA construct encoding recombinant C99-GFP-P2A-GFP. CMV, human cytomegalovirus promoter; CI, chimeric intron; P2A, porcine teschovirus 2A peptide. […]
Overexpression of APP-C99 zebrafish. […] Clarified lysates containing equal amounts of protein were analyzed by Western blotting.

[3] = test system: APPswe/PS1ΔE9 double transgenic mice; experiment: Western blotting of brain homogenates of treated APPswe/PS1ΔE9 mice; assay type: in vivo, mouse; conditions: 5 mg/kg daily oral, 20 days

## CC#CC(=O)Nc1ccc2ncnc(Nc3cccc(Br)c3)c2c1 [CL-387,785, N-[4-[(3-bromophenyl)amino]-6-quinazolinyl]-2-butynamide]
[1]
  processing of C99 (luminescence signal in CG cells): effectively blocked the processing of C99
[2]
  level of AICD in embryos: concomitant clearance
  level of C99 in embryos: concomitant clearance
[3]
  brain level of APP-CTF: significant reduction
  brain level of ErbB2: significant reduction
  brain level of p62: significant reduction
  brain level of total APP: steady level
  brain ratio of LC3-II to LC3-I: increase
